Measurements taken from ChEMBL document CHEMBL1153010, “Effect of conjugates of all-trans-retinoic acid and shorter polyene chain analogues with amino acids on prostate cancer cell growth” (Eur J Med Chem, 2009).
Blank lines part the entries; values can stand above or below the compound they belong to. Active and inactive are the calls of the source. The rule behind the calls is not given here.

Columns and labels:
LNCaP [1] = experiment: Cell cycle arrest in human LNCAP cells assessed as accumulation at G2/M phase after 48 hrs by flow cytometry; format: functional
LNCaP [2] = experiment: Antiproliferative activity against human LNCAP cells after 48 hrs by MTT assay; format: functional, cell-based
LNCaP [3] = experiment: Effect on morphology in human LNCAP cells assessed as elongation of cells by phase-contrast microscopy; format: functional, cell-based
LNCaP [4] = experiment: Antiproliferative activity against human LNCAP cells assessed as maximal effect at 10 uM after 48 hrs by MTT assay; format: functional, cell-based
LNCaP [5] = experiment: Cell cycle arrest in human LNCAP cells assessed as accumulation at G0/G1 phase after 48 hrs by flow cytometry; format: functional
LNCaP [6] = experiment: Antiproliferative activity against human LNCAP cells after 48 hrs by MTT assay in the presence of 1 uM RARalpha selective antagonist Ro415253; format: functional, cell-based
LNCaP [7] = experiment: Cell cycle arrest in human LNCAP cells assessed as accumulation at S phase after 48 hrs by flow cytometry; format: functional

IC50 (LNCaP [2]): 270 nM
Structure (SMILES): CC1=C(/C=C/C(C)=C/C=C/C(C)=C/C(=O)NCCC(=O)O)C(C)(C)CCC1
Activity (LNCaP [1]): 2.2%
Activity (LNCaP [2]): Dose-dependent effect
Activity (LNCaP [3]): Active
Activity (LNCaP [4]): Active
Activity (LNCaP [5]): 64%
Activity (LNCaP [6]): Active
Activity (LNCaP [7]): 14.8%

IC50 (LNCaP [2]): 270 nM
Structure (SMILES): CC1=C(/C=C/C(C)=C/C=C/C(C)=C/C(=O)N[C@@H](CC(C)C)C(=O)O)C(C)(C)CCC1
Activity (LNCaP [1]): 1.9%
Activity (LNCaP [2]): Dose-dependent effect
Activity (LNCaP [4]): Active
Activity (LNCaP [5]): 65.9%
Activity (LNCaP [6]): Active
Activity (LNCaP [7]): 19.6%

Structure (SMILES): CC1=C(/C=C/C(C)=C/C=C/C(C)=C/C(=O)NCCCCCC(=O)O)C(C)(C)CCC1
Activity (LNCaP [2]): inactive
Activity (LNCaP [3]): Active

IC50 (LNCaP [2]): 500 nM
Structure (SMILES): CC1=C(/C=C/C(C)=C/C=C/C(C)=C/C(=O)O)C(C)(C)CCC1 [TRETINOIN]
Activity (LNCaP [1]): 4.4%
Activity (LNCaP [2]): Dose-dependent effect
Activity (LNCaP [4]): Active
Activity (LNCaP [5]): 66.7%
Activity (LNCaP [6]): inactive
Activity (LNCaP [7]): 17.6%
